Key:
5-HT1A receptors = target: T1, 5-HT1A receptors (Rattus norvegicus, UniProt P19327); test: inhibition of [3H]8-OH-DPAT binding to 5-HT1A receptors in rat hippocampal tissue; settings: rat hippocampus, [3H]8-OH-DPAT 2 nM, 25° C., 30 min
T1 construct: Hippocampal tissue from the brains of male Sprague-Dawley rats; from tissue; host or cells: rat hippocampus membranes
T1 sequence (P19327 1-422): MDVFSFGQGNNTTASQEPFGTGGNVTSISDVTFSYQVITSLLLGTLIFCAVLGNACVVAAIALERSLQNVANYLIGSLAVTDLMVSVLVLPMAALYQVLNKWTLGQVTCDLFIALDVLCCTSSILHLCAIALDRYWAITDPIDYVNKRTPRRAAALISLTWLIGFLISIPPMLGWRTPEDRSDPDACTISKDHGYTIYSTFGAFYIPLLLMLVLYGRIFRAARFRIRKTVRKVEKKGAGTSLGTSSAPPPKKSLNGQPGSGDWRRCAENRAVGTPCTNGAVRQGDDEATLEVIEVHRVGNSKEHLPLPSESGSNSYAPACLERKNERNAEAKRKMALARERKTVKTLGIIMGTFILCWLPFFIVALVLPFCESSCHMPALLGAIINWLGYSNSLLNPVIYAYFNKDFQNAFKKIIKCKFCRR
Outline: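 Male Sprague-Dawley rat hippocampal membranes in 50 mM Tris-HCl, pH 7.7, with 4 mM CaCl2, 0.1% ascorbate and 10 µM pargyline were incubated 30 min at 25 °C with [3H]8-OH-DPAT (2 nM as added), then filtered. Compounds were screened at 10^-6 M (as added). Curves were run for those giving ≥50% displacement, and IC50 was converted to Ki using ligand concentration and KD.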

α2D-adrenoceptors = target: T2, α2D-adrenoceptors (Rattus norvegicus, UniProt P22909); test: inhibition of tritiated idazoxan binding to α2D-adrenoceptors in rat frontal cortical tissue; settings: rat frontal cortex
T2 construct: Frontal cortical tissue from the brains of male Charles River CD rats; from tissue; host or cells: rat frontal cortex membranes
T2 sequence (P22909 1-465): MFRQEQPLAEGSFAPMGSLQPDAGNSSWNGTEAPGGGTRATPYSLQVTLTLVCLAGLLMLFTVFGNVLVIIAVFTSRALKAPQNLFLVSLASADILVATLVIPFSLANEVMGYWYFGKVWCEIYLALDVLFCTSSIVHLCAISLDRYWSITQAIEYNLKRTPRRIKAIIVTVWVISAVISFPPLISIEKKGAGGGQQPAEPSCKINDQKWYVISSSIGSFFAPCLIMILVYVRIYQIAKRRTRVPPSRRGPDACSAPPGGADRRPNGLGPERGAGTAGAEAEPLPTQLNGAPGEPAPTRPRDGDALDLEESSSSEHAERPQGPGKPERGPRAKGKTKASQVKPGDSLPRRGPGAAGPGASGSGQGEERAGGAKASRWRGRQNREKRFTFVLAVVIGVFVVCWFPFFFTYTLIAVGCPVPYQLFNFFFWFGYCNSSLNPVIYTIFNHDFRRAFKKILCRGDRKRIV
Protocol: Frontal cortical tissue from the brains of male Charles River CD rats weighing between 150-250 g were homogenised in ice-cold 0.25 M sucrose (1:30 w/v) and centrifuged at 1,000 g at 4° C. for 12 minutes. The supernatant was stored on ice and the pellet was rehomogenised in 0.25 M sucrose (1:15 w/v) and centrifuged at 850 g at 4° C. for 12 minutes. Combined supernatants were diluted with 5 mM Tris-HCl (pH 7.5) containing 5 mM ethylenediamine tetraacetic acid (EDTA) readjusted to pH 7.5 (at 25° C.) with 1 M sodium hydroxide to 1:80 w/v, and centrifuged at 30,000 g at 4° C. for 10 minutes. The resulting pellet was resuspended in 50 mM Tris-HCl (pH 7.5) containing 5.68 mM L-ascorbic acid and 0.5 mM EDTA readjusted to pH 7.5 (at 25° C.) with 1 M sodium hydroxide, and centrifuged at 30,000 g for 10 minutes. The final pellet was resuspended in 50 mM Tris-HCl (pH 7.5) containing 5.68 mM L-ascorbic acid and 5 mM EDTA (equivalent to 12.5 mg wet weight of tissue/ml) and used immediately in the binding assay. Aliquots (400 μl; equivalent to 5 mg wet weight of tissue/tube) of this suspension were added to tubes containing the ligand (50 μl; 1 nM) and distilled water (50 μl; total binding) or phentolamine (50 μl; 5 μM; non-specificbinding) or test compound (50 μl; at a single concentration of 10^-6 M or at 10 concentrations ranging from 10^-11 -10^-3 M). The ligand was tritiated idazoxan ((1,4-[6,7(n)-^3 H]benzodioxan-2-yl)-2-imidazoline hydrochloride) and the mixture was incubated at 0° C. for 75 minutes before the incubation was terminated by rapid filtration.
The filters were washed with ice-cold Tris-HCl buffer and dried. The filters were punched out into vials, scintillation fluid added and radioactivity determined by liquid scintillation counting. […] Displacement curves were then produced for those compounds which displaced ≥50% of specific binding of the tritiated ligand at 10^-6 M using a range of concentrations of the compound. The concentration which gave 50% inhibition of specific binding (IC50) was obtained from the curve. The inhibition coefficient Ki was then calculated using the formula [formula] in which [ligand] is the concentration of the tritiated ligand used and KD is the equilibrium dissociation constant for the ligand.

| Ki (5-HT1A receptors) [nM] | Ki (α2D-adrenoceptors; tritiated idazoxan 1 nM, 0° C., 75 min) [nM] | inhibition at 1 µM (α2D-adrenoceptors; at 10^-6 M, tritiated idazoxan, read-out: % displacement of radio ligand, α2D) [%] | Structure (SMILES) |
| --- | --- | --- | --- |
| 57 | 6.4 |  | Nc1ncccc1C(=O)NCC1CCN(CC2COc3ccc(F)cc3O2)CC1 (stereo not shown) [Example 10, 2-amino-N-{[1-(7-fluoro-1,4-benzodioxan-2-ylmethyl)-4-piperidyl]methyl}pyridine-3-carboxamide] |
| 26 |  | 97 | Cc1ccc(C(=O)NCC2CCN(C[C@H]3COc4ccc(Cl)cc4O3)CC2)c(N)n1 [Example 14, (S)-2-amino-N-{[1-(7-chloro-1,4-benzodioxan-2-ylmethyl)-4-piperidyl]methyl}-6-methylpyridine-3-carboxamide] |

Source: patent US5935973A, “Heterocyclcarboxamide derivatives and their use as therapeutic agents” (Knoll Aktiengesellschaft, priority 1995, dated 1999)
